Test results as given in patent publication US20190053492A1, “SUBSTITUTED PYRIDINE COMPOUNDS AS PESTICIDES” (Bayer CropScience Aktiengesellschaft, priority 2016, published 2019).
Where two headings read alike, the source gives them in different places.

Columns and labels:
[1] = log P by HPLC on reversed-phase column (C 18), EEC Directive 79/831 Annex V.A8; assay type: physicochemical; conditions: 55° C.; for LOGP_HCOOH: log P (HCOOH), acidic range pH 2.7, 0.1% aqueous formic acid and acetonitrile, reversed-phase column (C 18); for LOGP_NEUTRAL: log P (neutral), HPLC reversed-phase column (C 18); for chromatographic logP: reversed-phase HPLC column (C 18)
Method: Temperature: 55° C. […] Called log P (HCOOH) in the table. […] Called log P (neutral) in the table.

[2] = system: Spodoptera frugiperda; assay: Spodoptera frugiperda spray test; assay type: in vivo; conditions: after 7 days, maize leaf discs; for pest or weed control at 100 g/ha / pest or weed control at 500 g/ha: Spodoptera frugiperda, foliar, 168 h, read-out: efficacy (caterpillars killed)
How it was run: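 Maize leaf discs were sprayed with compound formulated in acetone/DMF and emulsifier-containing water, dried, then infested with Spodoptera frugiperda caterpillars. Percent kill was scored after 7 days, from 100% (all dead) to 0% (none dead).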

[3] = system: Phaedon cochleariae; assay: Phaedon cochleariae spray test; assay type: in vivo; conditions: after 7 days, Chinese cabbage leaf discs
How it was run: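 Chinese cabbage leaf discs sprayed with compound in acetone/DMF and emulsifier-containing water, then infested with mustard beetle larvae once dry. Efficacy in % scored after 7 days (100% = all larvae killed, 0% = none).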

[4] = pH 2.7, LC-MS acidic range, pH 2.7, 0.1% formic acid/acetonitrile, read-out: log P (acidic) / log P (HCOOH)
[5] = pH 7.8, LC-MS neutral range, pH 7.8, ammonium hydrogencarbonate/acetonitrile, read-out: log P (neutral)
[6] = Phaedon cochleariae, foliar, 168 h, application rate 500 g/ha, read-out: efficacy (beetle larvae killed)

Row | SMILES | LOGP_HCOOH [1] | LOGP_NEUTRAL [1] | chromatographic logP [1, 4] | chromatographic logP [1, 5] | efficacy (caterpillars killed) ([2]; application rate 100 g/ha) [%] | efficacy (caterpillars killed) ([2]; application rate 500 g/ha) [%] | efficacy (beetle larvae killed) ([3]; application rate 500 g/ha) [%] | efficacy (beetle larvae killed) ([3]; application rate 100 g/ha) [%] | pest or weed control at 100 g/ha ([2]; application rate 100 g/ha) [%] | pest or weed control at 500 g/ha ([2]; application rate 500 g/ha) [%] | pest or weed control at 500 g/ha [3, 6] [%] | pest or weed control at 100 g/ha ([3]; Phaedon cochleariae, foliar, 168 h, application rate 100 g/ha, read-out: efficacy (beetle larvae killed)) [%]
1 | O=C(NCc1ccc([N+](=O)[O-])s1)c1cc(-c2ccc(OC(F)(F)F)cc2)cc(NC(=O)C2CC2)n1 [Example I-240] | 4.10 | 4.04 | – | – | 83 | 100 | 100 | – | – | – | – | –
2 | N#Cc1ccc(CNC(=O)c2cc(-c3ccc(OC(F)(F)F)cc3)cc(NC(=O)CC(F)(F)F)n2)cc1 [Example I-241] | 3.90 | 3.96 | – | – | 100 | 100 | 100 | – | – | – | – | –
3 | O=C(NC1CC1)c1cc(-c2ccc(C(F)(F)C(F)(F)F)c(F)c2)cc(NC(=O)C2CC2)n1 [Example I-243] | 3.94 | – | – | – | 100 | 100 | 100 | 100 | – | – | – | –
4 | COC1(NC(=O)c2cc(-c3ccc(C(F)(F)C(F)(F)F)c(F)c3)cc(NC(=O)C3CC3)n2)CC1 [Example I-244] | 4.08 | 4.08 | – | – | 100 | 100 | 100 | 100 | – | – | – | –
5 | O=C(NCCC(F)(F)F)c1cc(-c2ccc(C(F)(F)C(F)(F)F)c(F)c2)cc(NC(=O)C2CC2)n1 [Example I-246] | 4.37 | 4.32 | – | – | 100 | 100 | 100 | 83 | – | – | – | –
6 | N#Cc1cc(F)c(CNC(=O)c2cc(-c3ccc(C(F)(F)C(F)(F)F)c(F)c3)cc(NC(=O)C3CC3)n2)c(F)c1 [Example I-248] | 4.55 | – | – | – | 100 | 100 | 100 | 100 | – | – | – | –
7 | N#Cc1ccc(/C=N/NC(=O)c2cc(-c3ccc(OC(F)(F)F)cc3)cc(NC(=O)C3CC3)n2)cc1 [Example I-252, N-(6-{[(2E)-2-(4-Cyanobenzylidene)hydrazino]carbonyl}-4-[4-(trifluoromethoxy)phenyl]pyridin-2-yl)cyclopropanecarboxamide] | 3.88 | 3.83 | 3.88 | 3.83 | – | – | – | – | 83 | 100 | 100 | –
8 | CC(C)(CS(C)(=O)=O)NC(=O)c1cc(-c2ccc(C(F)(F)C(F)(F)F)c(F)c2)cc(NC(=O)C2CC2)n1 [Example I-253] | 3.96 | 3.91 | – | – | 100 | 100 | 100 | 100 | – | – | – | –
9 | N#Cc1ccc(CNC(=N)c2cc(-c3ccc(OC(F)(F)F)cc3)cc(NC(=O)C3CC3)n2)cc1 [Example I-258, N-{6-[N-(4-Cyanobenzyl)carbamimidoyl]-4-[4-(trifluoromethoxy)phenyl]pyridin-2-yl}cyclopropanecarboxamide] | 2.08 | 4.24 | 2.08 | 4.24 | – | – | – | – | – | 83 | 83 | –
10 | N#Cc1ccc(NC(=N)c2cc(-c3ccc(OC(F)(F)F)cc3)cc(NC(=O)C3CC3)n2)cc1 [Example I-261] | 2.09 | 4.19 | – | – | 100 | 100 | 83 | – | – | – | – | –
11 | O=C(NC(=O)c1cc(-c2ccc(C(F)(F)C(F)(F)F)c(F)c2)cc(NC(=O)C2CC2)n1)c1ccc([N+](=O)[O-])cc1 [Example I-263] | 4.57 | 4.54 | – | – | – | 100 | 100 | – | – | – | – | –
12 | O=C(NC(=O)C1CC1)c1cc(-c2ccc(C(F)(F)C(F)(F)F)c(F)c2)cc(NC(=O)C2CC2)n1 [Example I-264, N-(Cyclopropylcarbonyl)-6-[(cyclopropylcarbonyl)amino]-4-[3-fluoro-4-(pentafluoroethyl)-phenyl]pyridine-2-carboxamide] | 4.62 | 4.53 | 4.62 | 4.53 | – | – | – | – | 100 | 100 | 100 | 100
13 | N#Cc1ccc(CNC(=O)c2cc(-c3cc(F)c(C(F)(F)C(F)(F)F)c(F)c3F)cc(NC(=O)C3CC3)n2)cc1 [Example I-274] | 4.28 | – | – | – | – | 100 | 100 | – | – | – | – | –

Now from value to molecule, other results behind:

Row | LOGP_HCOOH [1] | LOGP_NEUTRAL [1] | chromatographic logP [1, 4] | chromatographic logP [1, 5] | SMILES | efficacy (caterpillars killed) ([2]; application rate 100 g/ha) [%] | efficacy (caterpillars killed) ([2]; application rate 500 g/ha) [%] | efficacy (beetle larvae killed) ([3]; application rate 500 g/ha) [%] | efficacy (beetle larvae killed) ([3]; application rate 100 g/ha) [%] | pest or weed control at 100 g/ha ([2]; application rate 100 g/ha) [%] | pest or weed control at 500 g/ha ([2]; application rate 500 g/ha) [%] | pest or weed control at 500 g/ha [3, 6] [%] | pest or weed control at 100 g/ha ([3]; Phaedon cochleariae, foliar, 168 h, application rate 100 g/ha, read-out: efficacy (beetle larvae killed)) [%]
14 | 4.45 | 4.38 | – | – | N#Cc1ccc(CNC(=O)c2cc(-c3ccc(C(F)(F)C(F)(F)F)c(F)c3)cc(NC(=O)C3CC3)n2)c(F)c1 [Example I-251] | 100 | 100 | 100 | 83 | – | – | – | –
15 | 4.03 | 3.98 | – | – | N#Cc1ccc(CNC(=O)c2cc(-c3ccc(OC(F)(F)C(F)C(F)(F)F)cc3)cc(NC(=O)C3CC3)n2)cc1 (stereo not drawn) [Example I-254] | 83 | 100 | 100 | 100 | – | – | – | –
16 | 3.75 | 3.73 | – | – | N#Cc1ccc(CNC(=O)c2cc(-c3ccc(Br)c(F)c3)cc(NC(=O)C3CC3)n2)cc1 [Example I-262] | 100 | 100 | 100 | 100 | – | – | – | –
17 | 4.51 | – | – | – | N#Cc1ccc(CNC(=O)c2cc(-c3c(Cl)cc(C(F)(F)C(F)(F)F)cc3Cl)cc(NC(=O)C3CC3)n2)cc1 [Example I-265] | – | 100 | 100 | – | – | – | – | –
18 | 4.05 | – | – | – | N#Cc1ccc(CNC(=O)c2cc(-c3c(Cl)cc(C(F)(F)C(F)(F)F)cc3Cl)cc(NC(=O)C3CC3)n2)cc1 [Example I-268] | 100 | 100 | 83 | 83 | – | – | – | –
19 | 4.45 | – | – | – | Cc1cc(-c2cc(NC(=O)C3CC3)nc(C(=O)NCc3ccc(C#N)cc3)c2)ccc1C(F)(F)C(F)(F)F [Example I-270] | – | 100 | 100 | – | – | – | – | –
20 | 4.23 | – | – | – | N#Cc1ccc(CNC(=O)c2cc(-c3cc(F)c(C(F)(F)C(F)(F)F)c(F)c3)cc(NC(=O)C3CC3)n2)cc1 [Example I-271] | – | 100 | 83 | – | – | – | – | –
21 | 4.57 | – | – | – | N#Cc1ccc(CNC(=O)c2cc(-c3c(Cl)cc(C(F)(F)C(F)(F)F)c(F)c3Cl)cc(NC(=O)C3CC3)n2)cc1 [Example I-276] | – | 83 | 100 | – | – | – | – | –
22 | 2.17 | 3.33 | – | – | O=C(NCc1ccncc1)c1cc(-c2ccc(C(F)(F)C(F)(F)F)c(F)c2)cc(NC(=O)C2CC2)n1 [Example I-277] | 100 | 100 | 83 | – | – | – | – | –
